This is an account of results in US9326973B2, “Hepatitis C virus inhibitors” (priority 2012, dated 2016).

This assay relates to HCV replicon, genotype-1a variant with glutamine 30 changed to glutamate in the NS5A protein. Kind of assay: microbe, parasite or virus in culture. The conditions noted are these: for Fold-Synergistic 1a (Q30E): HCV replicon genotype 1a Q30E (Q→E) variant, test compound titrated with an NS5A-targeting compound (BMS-790052 fixed at 200 nM), ranking of synergist activity; for EC50: Hepatitis C virus, genotype 1a Q30E replicon. Type of assay: cell-based, HCV genotype 1a. From the text:
The NS5A synergistic inhibitory effect of test compounds can be determined using various amounts of an NS5A-targeting compound with titration of a second compound of interest. […] In one embodiment, the HCV genotype strain can be genotype 1a containing a change at amino acid 30 of the NS5A protein consisting of glutamine to glutamate. The test compound can be chosen from compounds listed above or from others present in the literature.

In general, EC50 refers to the concentration needed to bring the measured effect to its halfway point.

Structures are written as SMILES. Read-outs that look alike come from different tables or passages of the source.

As to `CC(C)C(N[S+]([O-])C(C)(C)C)c1ncc(-c2ccc(-c3ccc(-c4cnc([C@@H](N[S+]([O-])C(C)(C)C)C(C)C)[nH]4)cc3)cc2)[nH]1` (single isomer, unassigned) [Compound Y-61], the “Fold-Synergistic 1a (Q30E)” value is reported as <10 fold.

For `COC(=O)N[C@H](C(=O)N1CCC[C@H]1c1nc(-c2ccc(-c3ccc(-c4c[nH]c([C@@H]5CCCN5C(=O)[C@@H](NC(=O)OC)C(C)C)n4)cc3)cc2)c[nH]1)C(C)C` [BMS-790052, reference compound], the “reciprocal synergistic inhibitory effect for the combination” value was ~100 fold. For the same molecule, the concentration for a half-maximal effect (EC50) (P-55 fixed at 200 nM, read-out: EC50 of BMS-790052 in the presence of a fixed amount of P-55) was ~2 nM. Also, where the note is “compound alone, read-out: EC50, titrated singly”, the EC50 was ~200 nM. As to `CC(C)(C)[C@H](NC(=O)C1(C2(O)CCOCC2)CCC1)c1ncc(-c2ccc(-c3ccc(-c4cnc([C@@H](NC(=O)C5(C6(O)CCOCC6)CCC5)C(C)(C)C)[nH]4)cc3)cc2)[nH]1` [Compound B84], the “Fold-Synergistic 1a (Q30E)” value is given as >100 fold. As for `CN(C)C(=N[C@H](c1ncc(-c2ccc(-c3ccc(-c4cnc([C@@H](NC(=O)C5(C6(O)CCOCC6)CCC5)C(C)(C)C)[nH]4)cc3)cc2)[nH]1)C(C)(C)C)N(C)C` [Compound B85], the “Fold-Synergistic 1a (Q30E)” value is reported as >10 fold.

With `CC(C)(C)[C@H](NCC1CCCCC1)c1nc(-c2ccc(-c3ccc(-c4c[nH]c([C@@H](NCC5CCCCC5)C(C)(C)C)n4)cc3)cc2)c[nH]1` [Compound L-2], the “Fold-Synergistic 1a (Q30E)” value was >100 fold. On to `CC(C)(C)[C@H](NC(=O)[C@H]1COC(=O)N1)c1nc(-c2ccc(-c3ccc(-c4c[nH]c([C@@H](NC(=O)[C@H]5COC(=O)N5)C(C)(C)C)n4)cc3)cc2)c[nH]1` [Compound L-9], for which the “Fold-Synergistic 1a (Q30E)” value is recorded as >10 fold. As for `CC(C)(C)[C@H](NC(=O)[C@@H]1CCC(=O)N1)c1nc(-c2ccc(-c3ccc(-c4c[nH]c([C@@H](NC(=O)[C@@H]5CCC(=O)N5)C(C)(C)C)n4)cc3)cc2)c[nH]1` [Compound L-10], the “Fold-Synergistic 1a (Q30E)” value was >10 fold. `CC(=O)N(C)C1(C(=O)N[C@H](c2nc(-c3ccc(-c4ccc(-c5c[nH]c([C@@H](NC(=O)C6(N(C)C(C)=O)CC6)C(C)(C)C)n5)cc4)cc3)c[nH]2)C(C)(C)C)CC1` [Compound L-11]: the “Fold-Synergistic 1a (Q30E)” value is >100 fold.

With `CC(=O)N(C)C1(C(=O)N[C@H](c2nc(-c3ccc(-c4ccc(-c5c[nH]c([C@@H](NC(=O)C6(N(C)C(C)=O)CCC6)C(C)(C)C)n5)cc4)cc3)c[nH]2)C(C)(C)C)CCC1` [Compound L-12], the “Fold-Synergistic 1a (Q30E)” value is reported as >100 fold. As for `CN(C(=O)OC(C)(C)C)C1(C(=O)N[C@H](c2nc(-c3ccc(-c4ccc(-c5c[nH]c([C@@H](NC(=O)C6(N(C)C(=O)OC(C)(C)C)CC6)C(C)(C)C)n5)cc4)cc3)c[nH]2)C(C)(C)C)CC1` [Compound L-13], the “Fold-Synergistic 1a (Q30E)” value was >100 fold. For the molecule `CN(C(=O)OC(C)(C)C)C1(C(=O)N[C@H](c2nc(-c3ccc(-c4ccc(-c5c[nH]c([C@@H](NC(=O)C6(N(C)C(=O)OC(C)(C)C)CCC6)C(C)(C)C)n5)cc4)cc3)c[nH]2)C(C)(C)C)CCC1` [Compound L-14], the “Fold-Synergistic 1a (Q30E)” value is >100 fold.

For the molecule `CC(C)(C)OC(=O)N1CCC[C@]1(C)C(=O)N[C@H](c1nc(-c2ccc(-c3ccc(-c4c[nH]c([C@@H](NC(=O)[C@@]5(C)CCCN5C(=O)OC(C)(C)C)C(C)(C)C)n4)cc3)cc2)c[nH]1)C(C)(C)C` [Compound L-15], the “Fold-Synergistic 1a (Q30E)” value was >100 fold. As to `CC(C)(C)OC(=O)N1CCCC[C@@H]1C(=O)N[C@H](c1nc(-c2ccc(-c3ccc(-c4c[nH]c([C@@H](NC(=O)[C@H]5CCCCN5C(=O)OC(C)(C)C)C(C)(C)C)n4)cc3)cc2)c[nH]1)C(C)(C)C` [Compound L-16], the “Fold-Synergistic 1a (Q30E)” value is >100 fold. `CC(C)(C)OC(=O)N1CCCC[C@H]1C(=O)N[C@H](c1nc(-c2ccc(-c3ccc(-c4c[nH]c([C@@H](NC(=O)[C@@H]5CCCCN5C(=O)OC(C)(C)C)C(C)(C)C)n4)cc3)cc2)c[nH]1)C(C)(C)C` [Compound L-17]: the “Fold-Synergistic 1a (Q30E)” value is recorded as >100 fold. For the molecule `COC(=O)N1CCC[C@@]1(C)C(=O)N[C@H](c1nc(-c2ccc(-c3ccc(-c4c[nH]c([C@@H](NC(=O)[C@]5(C)CCCN5C(=O)OC)C(C)(C)C)n4)cc3)cc2)c[nH]1)C(C)(C)C` [Compound L-23], the “Fold-Synergistic 1a (Q30E)” value is on record as >100 fold. With `CCC(CC)(NC(=O)OC(C)(C)C)C(=O)N[C@H](c1nc(-c2ccc(-c3ccc(-c4c[nH]c([C@@H](NC(=O)C(CC)(CC)NC(=O)OC(C)(C)C)C(C)(C)C)n4)cc3)cc2)c[nH]1)C(C)(C)C` [Compound L-24], the “Fold-Synergistic 1a (Q30E)” value was >100 fold. For the molecule `CC(C)(C)[C@H](NC(=O)CN1CCOC1=O)c1nc(-c2ccc(-c3ccc(-c4c[nH]c([C@@H](NC(=O)CN5CCOC5=O)C(C)(C)C)n4)cc3)cc2)c[nH]1` [Compound L-25], the “Fold-Synergistic 1a (Q30E)” value is given as >10 fold. With `CC(C)(C)[C@H](NC(=O)C1(N2CCOC2=O)CC1)c1nc(-c2ccc(-c3ccc(-c4c[nH]c([C@@H](NC(=O)C5(N6CCOC6=O)CC5)C(C)(C)C)n4)cc3)cc2)c[nH]1` [Compound L-26], the “Fold-Synergistic 1a (Q30E)” value is on record as >100 fold.

Regarding `CC(CF)(CF)OC(=O)NC1(C(=O)N[C@H](c2nc(-c3ccc(-c4ccc(-c5c[nH]c([C@@H](NC(=O)C6(NC(=O)OC(C)(CF)CF)CC6)C(C)(C)C)n5)cc4)cc3)c[nH]2)C(C)(C)C)CC1` [Compound L-27], the “Fold-Synergistic 1a (Q30E)” value is given as >100 fold. As to `CC(C)(C)[C@H](NC(=O)C1(OC(=O)N2CCCCC2)CC1)c1nc(-c2ccc(-c3ccc(-c4c[nH]c([C@@H](NC(=O)C5(OC(=O)N6CCCCC6)CC5)C(C)(C)C)n4)cc3)cc2)c[nH]1` [Compound L-28], the “Fold-Synergistic 1a (Q30E)” value is >100 fold. On to `CN(C)C(=O)OC1(C(=O)N[C@H](c2nc(-c3ccc(-c4ccc(-c5c[nH]c([C@@H](NC(=O)C6(OC(=O)N(C)C)CC6)C(C)(C)C)n5)cc4)cc3)c[nH]2)C(C)(C)C)CC1` [Compound L-29], for which the “Fold-Synergistic 1a (Q30E)” value is recorded as >100 fold. With `COC(=O)N(C)C1(C(=O)N[C@H](c2nc(-c3ccc(-c4ccc(-c5c[nH]c([C@@H](NC(=O)C6(N(C)C(=O)OC)CC6)C6(C)CC6)n5)cc4)cc3)c[nH]2)C2(C)CC2)CC1` [Compound L-30], the “Fold-Synergistic 1a (Q30E)” value is >100 fold. Consider `CC(C)(C)[C@H](NC(=O)C1(N2CCOCC2)CC1)c1nc(-c2ccc(-c3ccc(-c4c[nH]c([C@@H](NC(=O)C5(N6CCOCC6)CC5)C(C)(C)C)n4)cc3)cc2)c[nH]1` [Compound L-31], for which the “Fold-Synergistic 1a (Q30E)” value is on record as >100 fold. Regarding `CC(C)(C)[C@H](NC(=O)C1(n2cncn2)CC1)c1nc(-c2ccc(-c3ccc(-c4c[nH]c([C@@H](NC(=O)C5(n6cncn6)CC5)C(C)(C)C)n4)cc3)cc2)c[nH]1` [Compound L-33], the “Fold-Synergistic 1a (Q30E)” value was >100 fold. The same measure, in the same setting: the figure for `CCN(CC(F)(F)F)C(=O)C(=O)N[C@H](c1nc(-c2ccc(-c3ccc(-c4c[nH]c([C@@H](NC(=O)C(=O)N(CC)CC(F)(F)F)C5CC5)n4)cc3)cc2)c[nH]1)C1CC1` [Compound L-35] is >100 fold; for `CC(C)N(C(=O)C(=O)N[C@H](c1nc(-c2ccc(-c3ccc(-c4c[nH]c([C@@H](NC(=O)C(=O)N(C(C)C)C5CC5)C5CC5)n4)cc3)cc2)c[nH]1)C1CC1)C1CC1` [Compound L-36] it is >100 fold; for `O=C(N[C@H](c1nc(-c2ccc(-c3ccc(-c4c[nH]c([C@@H](NC(=O)C(=O)N5CCC(F)(F)CC5)C5CC5)n4)cc3)cc2)c[nH]1)C1CC1)C(=O)N1CCC(F)(F)CC1` [Compound L-37] it is >100 fold.

Regarding `CC(C)N(C(=O)OC1(C(=O)N[C@H](c2nc(-c3ccc(-c4ccc(-c5c[nH]c([C@@H](NC(=O)C6(OC(=O)N(C(C)C)C(C)C)CC6)C(C)(C)C)n5)cc4)cc3)c[nH]2)C(C)(C)C)CC1)C(C)C` [Compound L-38], the “Fold-Synergistic 1a (Q30E)” value is recorded as >100 fold. Same read-out and setting: the figure for `CC(C)N(C(=O)OC1(C(=O)N[C@H](c2nc(-c3ccc(-c4ccc(-c5c[nH]c([C@@H](NC(=O)C6(OC(=O)N(C(C)C)C(C)C)CC6)C6(C)CC6)n5)cc4)cc3)c[nH]2)C2(C)CC2)CC1)C(C)C` [Compound L-39] is >100 fold; for `C[C@@H](OC(=O)NC1(C(=O)N[C@H](c2nc(-c3ccc(-c4ccc(-c5c[nH]c([C@@H](NC(=O)C6(NC(=O)O[C@H](C)C(F)(F)F)CC6)C6(C)CC6)n5)cc4)cc3)c[nH]2)C2(C)CC2)CC1)C(F)(F)F` [Compound L-42] it is >100 fold. On to `COC(=O)N1CCC(F)(F)C[C@H]1C(=O)N[C@H](c1nc(-c2ccc(-c3ccc(-c4c[nH]c([C@@H](NC(=O)[C@@H]5CC(F)(F)CCN5C(=O)OC)C(C)(C)C)n4)cc3)cc2)c[nH]1)C(C)(C)C` [Compound L-43], for which the “Fold-Synergistic 1a (Q30E)” value is given as >100 fold.

Turning to `C[C@@H](OC(=O)N(C)C1(C(=O)N[C@H](c2nc(-c3ccc(-c4ccc(-c5c[nH]c([C@@H](NC(=O)C6(N(C)C(=O)O[C@H](C)C(F)(F)F)CC6)C(C)(C)C)n5)cc4)cc3)c[nH]2)C(C)(C)C)CC1)C(F)(F)F` [Compound L-44], the “Fold-Synergistic 1a (Q30E)” value is reported as >100 fold.

For `CC1(C(=O)N[C@H](c2nc(-c3ccc(-c4ccc(-c5c[nH]c([C@@H](NC(=O)C6(C)CC6)C(C)(C)C)n5)cc4)cc3)c[nH]2)C(C)(C)C)CC1` [Compound L-45], the “Fold-Synergistic 1a (Q30E)” value was >100 fold. With `CC(C)(C)OC(=O)N1CCCCC1(C)C(=O)N[C@H](c1nc(-c2ccc(-c3ccc(-c4c[nH]c([C@@H](NC(=O)C5(C)CCCCN5C(=O)OC(C)(C)C)C(C)(C)C)n4)cc3)cc2)c[nH]1)C(C)(C)C` (stereo partly drawn) [Compound L-46a], the “Fold-Synergistic 1a (Q30E)” value is given as >100 fold. Consider `CC(C)(C)OC(=O)NC1(C(=O)N[C@H](c2nc(-c3ccc(-c4ccc(-c5c[nH]c([C@@H](NC(=O)C6(NC(=O)OC(C)(C)C)CCC(F)(F)CC6)C(C)(C)C)n5)cc4)cc3)c[nH]2)C(C)(C)C)CCC(F)(F)CC1` [Compound L-49], for which the “Fold-Synergistic 1a (Q30E)” value was >100 fold.
